Results taken from patent US20210371817A1, “COMPOSITIONS AND METHODS FOR PRECISE PATTERNING OF POSTERIOR NEUROECTODERM FROM HUMAN PLURIPOTENT STEM CELLS” (WISCONSIN ALUMNI RESEARCH FOUNDATION, priority 2013, published 2021).

Test system: H9 hESCs
Assay: HOX, OTX2 and T gene expression by RT-PCR/qPCR during hESC differentiation with morphogens
Format: cell-based, human
Conditions: neuromesodermal state
Protocol: hPSC differentiation. hPSCs were washed once with phosphate-buffered saline (PBS; Invitrogen), dissociated with ACCUTASE® (Invitrogen) for 3 min, and collected by centrifugation. hPSCs were then seeded onto VTN-NC-coated plates in E8 medium containing 10 μM ROCK inhibitor (Y27632; R&D Systems). Seeding density was 2×10^5 cells/cm^2. The following day, the cells were switched to E6 medium (same composition as E8 medium minus FGF2 and TGFβ 1). Morphogen treatments were then carried out according to the figures in the text. Cells were supplemented with FGF8b (100-200 ng/ml; Peprotech), CHIR99021 (3-6 μM; Tocris), and/or RA (3 μM; Sigma).
Reverse transcriptase polymerase chain reaction (RT-PCR). Total RNA was extracted from cells using TRIZOL® reagent (Invitrogen) according to the manufacturer's instructions. RNA was then subjected to reverse-transcription using a Thermoscript™ RT-PCR kit (Invitrogen) in a 20 μL mixture according to the manufacturer's instructions. The resulting cDNA was then amplified in a 25 μL mixture containing 10×PCR buffer, 0.2 mM dNTP, 1.5 mM MgCl2, 0.5 μM of each primer, and 1 U Taq DNA polymerase (Invitrogen). Amplified products were resolved on 2% agarose gels containing SYBR Safe (Invitrogen) and visualized with a VersaDoc (BioRad). Primer sequences can be found in Table 3. All amplifications were carried out for 35 cycles. HOXC5 and HOXC6 were amplified at 58° C., all others with an annealing temperature of 55° C.
Propagation and differentiation of neuromesodermal progenitors. H9 hESCs (passage 25-45), H9 ishcat2 hESCs (passage 33-43), and IMR90-4 iPSCs (passage 31-40) were maintained in E8 medium on MATRIGEL© (BD Biosciences) as previously described. To initiate differentiation, hPSCs were passaged with ACCUTASE© (Life Technologies) onto vitronectin (VTN-NC)-coated plates at a density of 1×10^5 cells/cm^2 as previously described. The following day, cells were changed to E6 medium. 24 h later, cells were changed to E6 medium containing 200 ng/ml FGF8b (Peprotech). 24 h later, cells were washed once with 2 ml PBS, treated with ACCUTASE® for 2 min, and removed from the surface by gentle pipetting. After collection by centrifugation, cells were gently resuspended in E6 medium containing 200 ng/ml FGF8b and CHIR99021 (CHIR, concentration varied depending on cell line; Tocris) and re-seeded on VTN-NC-coated plates at a density of 1.5×10^5 cells/cm^2. Medium was not changed until 48 h after passaging. This passaging process was repeated on day 3 of CHIR 99021 treatment (re-seed density of 1.2×10^5 cells/cm^2) if extended neuromesodermal propagation was required, and 50 ng/ml GDF11 (Peprotech) was added on day 4 of CHIR 99021 treatment to initiate lumbar patterning. Cells were changed to E6 medium containing 1 μM retinoic acid (RA; Sigma) to facilitate neural transition.
qPCR. Total RNA was extracted from cultured cells using TRIZOL® (Life Technologies) according to the manufacturer's instructions. After isolation, 2-5 μg of total RNA was immediately subjected to reverse transcription using the Thermoscript™ RT-PCR kit (Life Technologies) in a 20 μL reaction according to the manufacturer's instructions. […] For all experiments, ΔΔCt values for each gene were calculated relative to ribosomal protein S18 (RPS18) RNA levels and converted to fold difference assuming 100% primer efficiency, then normalized to maximum expression levels as indicated in each figure legend. […]

Substance: GDF11: Growth differentiation factor 11, a TGFβ family member
- Expression of hindbrain/cervical genes HOXA4, HOXB4, HOXC6 (data not shown): did not repress
- Activation of lumbar and sacral HOX paralogs (qPCR, GDF11 50 ng/ml): necessary for robust activation of lumbar (HOX10) and sacral (HOX11) paralogs
